Data reported in US20200009163A1, “POLYPHOSPHATES AS INHIBITORS OF CALCIUM CRYSTALLIZATION” (priority 2017, published 2020).

Experiments:
[1] = ISE (ion selective electrode) measurement of inhibition of COM crystallization from aqueous solution; conditions: FIG. 3
From the text: FIG. 3 depicts experimental results obtained using an example of a LTPP compound (Na5P3O10) and an example of a HMP compound ((NaPO3)6) to inhibit crystallization of […] from aqueous solution. Results for a citrate compound (Na3C6H5O7), which is commonly used in the treatment of kidney stones, is presented for purposes of comparison. In FIG. 3, the x-axis represents a measure of concentration (micromolar (μM) concentration on a logarithmic scale) of the inhibitor present in the solution. The y-axis represents percent inhibition (% reduction in the rate of crystallization) of COM crystallization as compared to a control solution having no inhibitor compounds therein. The effect of the inhibitors on COM growth was estimated using ISE (ion selective electrode) measurements. This measurement technique enables quantification of the extent of inhibition on calcium crystal growth as a function of inhibitor concentration. More specifically, ISE measures free calcium concentration in solution as a function of time to measure the rate of crystallization in the absence and presence of inhibitor. This technique can be used to measure the effectiveness of the polyphosphates and polyphosphate derivatives at inhibiting or modifying calcium crystal growth. The values of “% inhibition” that were obtained by this technique, and presented in FIG. 3 for the different combinations of inhibitor type and concentration, reflect rates of crystallization that have been normalized with respect to the rate of crystallization for a control solution (e.g., inhibitor concentration of zero). The % inhibition refers to the averages of at least 3 separate experiments. The solutions tested were aqueous solutions of calcium chloride (CaCl2)), sodium oxalate (Na2C2O4), and sodium chloride (NaCl). The tested solutions further included the inhibitor/modifier compound at the stated concentration level.

[2] = Bulk calcium oxalate crystallization, optical microscope images and crystal frequency; conditions: for calcium oxalate crystals observed (optical microscope): control crystals approximately 25-50 μm along c-axis
Procedure: FIG. 4A depicts optical microscope images showing results of calcium oxalate crystallization from a control solution and solutions including LTPP Na5P3O10 at concentrations of 5 μM and 15 μM. FIG. 4B depicts effects of Na5P3O10 concentrations on calcium oxalate crystal frequency. […] Crystals formed from the control solution were approximately 25-50 μm in size as measured along the c-axis, which is the longest dimension.
FIG. 5A depicts optical microscope images showing results of calcium oxalate crystallization from a control solution and solutions including HMP (NaPO3)6 at concentrations of 0.3 μM and 0.7 μM. FIG. 5B depicts effects of (NaPO3)6 concentrations on calcium oxalate crystal frequency. […] Crystals formed from the control solution were approximately 25-50 μm in size as measured along the c-axis, which is the longest dimension.
FIG. 6 depicts optical microscope images showing results of calcium oxalate crystallization during bulk studies at different concentrations of LTPP. The leftmost image is a representative control crystal.

O=C(O)CC(O)(CC(=O)O)C(=O)O [citrate, Na3C6H5O7, reference compound]
percent inhibition (% reduction in the rate of crystallization) of COM crystallization ([1]; inhibitor concentration of around 320 μM, maximum reached even at much higher concentrations): about 60%

(NaPO3)6 [HMP]
calcium oxalate crystals observed (optical microscope) ([2]; 0.7 μM inhibitor, FIG. 5A): Very small crystals | calcium oxalate crystal frequency ([2]; higher HMP solution concentrations (above 0.7 μM), FIG. 5B): no definitive crystals being observed | percent inhibition (% reduction in the rate of crystallization) of COM crystallization ([1]; inhibitor concentration of less than about 1 μM, vs control solution without inhibitor): approximately 100%

Na5P3O10 [LTPP]
crystal morphology (habit) of calcium oxalate crystals ([2]; 5 μM and 15 μM inhibitor vs control crystal, FIG. 6): morphology of the crystals change with increasing inhibitor concentration | calcium oxalate crystals observed (optical microscope) ([2]; 15 μM inhibitor, FIG. 4A): very small crystals | calcium oxalate crystal frequency ([2]; higher LTPP solution concentrations (above 15 μM), FIG. 4B): no definitive crystals being observed | percent inhibition (% reduction in the rate of crystallization) of COM crystallization ([1]; inhibitor concentration range of about 5 μM to about 125 μM, vs control solution without inhibitor): 30-100%
